Assay results as given in patent publication US5698547A, “Cephalosporin antibiotics” (Microcide Pharmaceuticals, Inc., priority 1995, dated 1997).
“And” between values parts separate entries of the source, which are not always exact repeats. Identical values can stand only once. Counter-ions that a name gives are not always drawn. Like-named read-outs stand apart in the source and are kept apart here.

How the values were obtained:
[1] = tested on: S. aureus Col (Meth^R) (lac^-); test: MIC by agar dilution, S. aureus Col (Meth^R) (lac^-); type: cell-based; settings: agar dilution, S. aureus Col (Meth^R) (lac^-)
How it was run: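 Agar dilution per NCCLS (1991): two-fold dilutions from 128 μg/mL down to ≤0.25 μg/mL in Mueller-Hinton agar, each level in duplicate. Spots of about 10^4 cfu of log-phase culture; 16-20 h at 35°-36° C. MIC in μg/ml is the lowest concentration inhibiting growth.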

[2] = tested on: methicillin-susceptible S. aureus strain ATCC 13709; test: murine model for lethal bacteremic peritonitis; type: in vivo, female Swiss-Webster mice; settings: subcutaneous, 72 h
How it was run: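 Female Swiss-Webster mice challenged IP with an LD100 titer of bacteria in 7% hog gastric mucin; groups of 10 treated SC with twofold drug increments (0.01–512 mg/kg) as two equal doses at challenge and 2 h later. Survival followed for 72 h; PD50 (total mg/kg) calculated by probit method.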

[3] = tested on: S. aureus strain ATCC 13709; test: Challenge strain MIC; type: cell-based; settings: Staphylococcus aureus, ATCC13709; S. aureus ATCC 13709; read-out: Challenge str MIC
Description: (§1) The compounds of the invention were evaluated against several β-lactamresistant bacteria strains by determining the minimum inhibitory concentration (MIC, μg/ml) of each compound with respect to each strain. The MIC, the lowest concentration of antibiotic which inhibits growth of the test organism, was determined by the agar dilution method.
(§2) To determine the MIC for bacterial isolates, the test compound was incorporated in a series of two-fold dilutions into liquified Mueller-Hinton agar. Upon solidification, a number of different bacterial strains were spot inoculated with a replicating device onto the agar surface. […] The procedures used in these studies have been standardized by the National Committee for Clinical Laboratory Standards (NCCLS), as per the NCCLS publication entitled METHODS FOR DILUTION ANTIMICROBIAL SUSCEPTIBILITY TESTS (1991), which is incorporated herein by reference.
reported for challenge with methicillin-susceptible S. aureus

MRSA strains = settings: in words, reported; cited from earlier work
S. aureus ATCC 25923 = test: MIC by agar dilution, S. aureus ATCC 25923; type: cell-based
Description: as §1, §2
(§3) Aliquots of antimicrobial agents were prepared in phosphate buffered saline (PBS) at pH 7.2. Tween 20 or DMSO was used as a solubilizing vehicle as needed. Standard methods of vortexing, sonicating and gentle heat were used to facilitate solubilizing the test agent. […]
(§4) Disposable sterile 1 μL loops were used to inoculate test plates, with each isolate in a designated grid on the agar plate. […] Endpoints were assessed as the minimum inhibitory concentration (MIC) of antimicrobial agent.

[4] = tested on: S. epidermidis ATCC 31432; test: MIC by agar dilution, S. epidermidis ATCC 31432; type: cell-based
Description: as §1, §2, §3, §4

[5] = tested on: S. aureus 76 (Meth^R) (lac^+); test: MIC by agar dilution, S. aureus 76 (Meth^R) (lac^+); type: cell-based
Description: as §1, §2
(§5) Aliquots of antimicrobial agents were prepared in phosphate buffered saline (PBS) at pH 7.2. Tween 20 or DMSO was used as a solubilizing vehicle as needed. Standard methods of vortexing, sonicating and gentle heat were used to facilitate solubilizing the test agent. Typically, the concentration of the stock solution was 10× that of the highest drug concentration tested. A 1.28 mg/mL stock solution was used with a subsequent highest working concentration of 128 μg/mL. Serial two-fold dilutions were done through ≤0.25 μg/mL. Each drug level was tested in duplicate. Two-fold drug dilutions were done in sterile 50 mL tubes with a final drug volume of 5 mL. Upon the addition of 45 mL of molten agar, a 10-fold dilution resulted. Two, 25 mL. plates were then poured into 15×150 mm square Petri plates with grids and allowed to harden.
(§6) A control plate with a reference drug, either cefotaxime, vancomycin or imipenem, was used as the positive growth control. Stock concentrations of reference antibiotics were prepared and frozen at -80° C. Upon preparation, the control plates were sealed and stored in the refrigerator for up to 1 week prior to use; however, imipenem control plates had to be prepared just prior to use. All test plates were used within 24 hours of preparation.
(§7) Satisfactory results were obtained where the inoculum contained about 10^4 colony forming units (cfu) ±0.5 logs. Starting with pure cultures of the test isolates on agar plates, a few isolated colonies were transferred to a tube of nutrient broth and allowed to grow 4-6 hours at 35°-36° C. to reach log-phase growth. Dropwise addition of the broth culture to PBS was done to match a 0.5 McFarland turbidity standard equal to 10^8 cfu/mL. This was further diluted ten-fold in PBS to reach a working inoculum concentration of 10^7 cfu/mL. When 1 μL of the working inoculum was applied to the agar surface a concentration of about 10^4 cfu per spot was obtained.
(§8) Disposable sterile 1 μL loops were used to inoculate test plates, with each isolate in a designated grid on the agar plate. An alternate method of inoculation involved the use of a replica plater, a device with 48 steel pins allowing the simultaneous inoculation of multiple isolates. After the spots had dried, the plates were incubated at 35°-36° C. for 16-20 hours. Endpoints were assessed as the minimum inhibitory concentration (MIC) of antimicrobial agent.

[6] = tested on: S. aureus Col8A (Meth^S) (lac^-); test: MIC by agar dilution, S. aureus Col8A (Meth^S) (lac^-); type: cell-based; settings: agar dilution; S. aureus Col8A (Meth^S) (lac^-)
Description: as §1, §2, §5, §6, §7, §8
The novel agents of this invention are notable for their enhanced activity against S. aureus Col and Enterococci (E. faecium and E. faecalis). The S. aureus Col strain is a high-level PBP2a producer, whereas S. aureus Col 8A, its isogenic partner, lacks PBP2a. […] Thus, the compounds of the present invention are effective against PBP2a-producing bacteria.

S. haemolyticus (Meth^R) = test: MIC by agar dilution, S. haemolyticus (Meth^R); type: cell-based
Description: as §1, §2, §5, §6, §7, §8

E. faecium ATCC 35667 = test: MIC by agar dilution, E. faecium ATCC 35667; type: cell-based
Description: as §1, §2, §5, §6, §7, §8

E. faecalis ATCC 29212 = test: MIC by agar dilution, E. faecalis ATCC 29212; type: cell-based
Description: as §1, §2, §5, §6, §7, §8

E. coli ATCC 25922 = test: MIC by agar dilution, E. coli ATCC 25922; type: cell-based
Description: as §1, §2, §5, §6, §7, §8

P. aeruginosa ATCC 27853 = test: MIC by agar dilution, P. aeruginosa ATCC 27853; type: cell-based
Description: as §1, §2, §5, §6, §7, §8

Q: Which results are given for `N=C(N)NCCSCC(=O)N[C@@H]1C(=O)N2C(C(=O)O)=C(Sc3ccccc3CSC(=N)N)CS[C@H]12` [Cmpd 137, (7R)-7-[((2-guanidinoethylthio)acetyl)amino]-3-(2-isothiouroniummethylphenylthio)-3-cephem-4-carboxylate, trifluoroacetic acid salt]?
A: MIC ([1]; Staphylococcus aureus, read-out: MIC): 2 µg/mL; Mortality ([2]; dose 0.0391 mg/kg): 8/10; Mortality ([2]; dose 0.0781 mg/kg): 9/10; Mortality ([2]; dose 0.1562 mg/kg, trifluoroacetic acid salt): 7/10 and 9/10; Mortality ([2]; dose 0.3125 mg/kg, trifluoroacetic acid salt): 5/10 and 8/10; Mortality ([2]; dose 0.625 mg/kg, trifluoroacetic acid salt): 6/10 and 1/10; Mortality ([2]; dose 1.25 mg/kg): 0/10; Mortality ([2]; dose 2.5 mg/kg): 0/10; ED50 ([2]; two equal doses, S. aureus ATCC 13709 IP challenge, trifluoroacetic acid salt, 4320 min): 0.38 mg/kg; MIC [3]: 0.125 µg/mL

Q: Which “activity against MRSA strains” value (MRSA strains) does the source give for `C[C@@H](O)[C@H]1C(=O)N2C(C(=O)O)=C(SCCN=CN)C[C@H]12` [imipenem] here?
A: Its value is “active against a few MRSA strains”.

Q: With “(7R)-7-[(Phenylacetyl)amino]-3-(2,3-dihydro-2,2-dimethylbenzofuran-7-yl)-3-cephem-4-carboxylic acid [Cmpd 55]” as the compound, how does the MIC (S. aureus ATCC 25923) read?
A: Its MIC is < 0.25 µg/mL.

Q: What about the MIC [4] of the same compound?
A: Its MIC is < 0.25 µg/mL.

Q: And the MIC [1]?
A: Its MIC is 4 µg/mL.

Q: And the MIC [5]?
A: Its MIC is 16 µg/mL.

Q: And the MIC [6]?
A: The MIC was < 0.25 µg/mL.

Q: And the MIC (S. haemolyticus (Meth^R))?
A: The MIC was 16 µg/mL.

Q: What about the MIC (E. faecium ATCC 35667) of the same compound?
A: Its MIC is 8 µg/mL.

Q: And the MIC (E. faecalis ATCC 29212)?
A: Its MIC is 16 µg/mL.

Q: And the MIC (E. coli ATCC 25922)?
A: Its MIC is > 32 µg/mL.

Q: What about the MIC (P. aeruginosa ATCC 27853) of the same compound?
A: Its MIC is > 32 µg/mL.
